# Values of other authors in paper PMC7761982, “FDA-Approved Drugs with Potent In Vitro Antiviral Activity against Severe Acute Respiratory Syndrome Coronavirus 2” (Pharmaceuticals, 2020).
# System: SARS-CoV-2
# Conditions: in vitro; read-out: IC50 against SARS-CoV-2 (reported); cited from earlier work
smiles,measurement,value
CC(=O)Oc1ccccc1C(=O)Nc1ncc([N+](=O)[O-])s1 [Nitazoxanide],IC50,2120 nM
